Laboratory results reported in the NIST ThermoML archive (doi:10.1021/je1013476).
± gives the expanded uncertainty stated by the source.

Conditions: 101.33 kPa, Liquid; for viscosity: Capillary tube (Ostwald / Ubbelohde) method; for mass density: Vibrating tube method

Row | Structure (SMILES) | viscosity (288.15 K) [mPa·s] | mass density (288.15 K) [kg/m3] | viscosity (293.15 K) [mPa·s] | mass density (293.15 K) [kg/m3] | viscosity (298.15 K) [mPa·s] | mass density (298.15 K) [kg/m3] | viscosity (303.15 K) [mPa·s] | mass density (303.15 K) [kg/m3] | viscosity (313.15 K) [mPa·s] | mass density (313.15 K) [kg/m3]
1 | CCCCCCCCO [octan-1-ol] | 11.07 ± 0.1 | 828.63 ± 0.12 | 9.161 ± 0.085 | 825.2 ± 0.12 | 7.688 ± 0.072 | 821.74 ± 0.12 | 6.404 ± 0.06 | 818.23 ± 0.12 | 4.62 ± 0.044 | 811.22 ± 0.12
2 | CCO [ethanol] | 1.313 ± 0.013 | 793.65 ± 0.12 | 1.216 ± 0.012 | 789.34 ± 0.12 | 1.132 ± 0.011 | 785.07 ± 0.12 | 1.01 ± 0.01 | 780.72 ± 0.12 | 0.824 ± 0.008 | 771.97 ± 0.13
3 | CCOC(=O)OCC [diethyl carbonate] | 0.864 ± 0.009 | 980.39 ± 0.07 | 0.803 ± 0.008 | 974.83 ± 0.07 | 0.757 ± 0.008 | 969.15 ± 0.08 | 0.7 ± 0.007 | 963.39 ± 0.08 | 0.616 ± 0.006 | 952.1 ± 0.08

Continued, values first:

Row | viscosity (288.15 K) [mPa·s] | mass density (288.15 K) [kg/m3] | viscosity (293.15 K) [mPa·s] | mass density (293.15 K) [kg/m3] | viscosity (298.15 K) [mPa·s] | mass density (298.15 K) [kg/m3] | viscosity (303.15 K) [mPa·s] | mass density (303.15 K) [kg/m3] | viscosity (313.15 K) [mPa·s] | mass density (313.15 K) [kg/m3] | Structure (SMILES)
4 | 2.507 ± 0.024 | 807.55 ± 0.12 | 2.202 ± 0.021 | 803.52 ± 0.13 | 1.973 ± 0.019 | 799.45 ± 0.13 | 1.733 ± 0.017 | 795.47 ± 0.13 | 1.381 ± 0.014 | 787.28 ± 0.13 | CCCO [propan-1-ol]
5 | 4.682 ± 0.045 | 818.32 ± 0.13 | 4.025 ± 0.039 | 814.63 ± 0.13 | 3.497 ± 0.034 | 810.96 ± 0.13 | 3.022 ± 0.029 | 807.26 ± 0.13 | 2.312 ± 0.023 | 799.78 ± 0.14 | CCCCCO [pentan-1-ol]
